US9056916B2, “Method and assay kit for detection of toxicity induced by pyrrolizidine alkaloids” (priority 2012, dated 2015)

Assays:
Assay type in all cases: binding, rabbit
purified N-antibody = assay: Competitive Western blot of purified N-antibody; settings: competitor 0.1 mM or 1 mM, concentration-dependent
Experimental: (§1) In Western and competitive Western blot assay, coating antigen was loaded and resolved by 7.5% SDS-PAGE and then transferred to nitrocellulose membranes. Blots were then blocked with 5% nonfat milk in PBST buffer for 1 h at room temperature. Blotted membranes were incubated with 1/4000 dilution of purified N-antibody in PBST buffer with 5% nonfat milk in the absence or 0.1 mM or 1 mM of pyrrole-(NHMe)2 at 4° C. overnight. The following day, after washing three times with PBST buffer, membranes were incubated with anti-rabbit IgG-horseradish peroxidase solution (1/5000 in PBST buffer with 5% nonfat milk) for 1 h at room temperature. After washing, protein bands were detected by chemiluminescence with an ECL detection kit. […] Moreover, the immune response was inhibited by pyrrole-containing competitor, pyrrole-(NHMe)2, in competitive Western blot assays, and the inhibitory effect was concentration-dependent manner (FIG. 9).

purified S-antibody = assay: Competitive Western blot of purified S-antibody; settings: competitor 0.1 mM or 1 mM, concentration-dependent
Experimental: as §1, with “S-antibody” for “N-antibody”, “pyrrole-(SMe)2” for “pyrrole-(NHMe)2”, “pyrrole-(SMe)2,” for “pyrrole-(NHMe)2,”, “(See FIG. 11).” for “(FIG. 9).”

antiserum II = assay: Competitive ELISA and cross-reactivity test of antiserum II; settings: antiserum II 1:30000, pure PA as competitor
Experimental: In competitive ELISA assay, one hundred microliters of coating antigen, BSA-pyrrole adducts, in PBS buffer was added to wells of a 96-well microtiter plate. The plates were incubated at 4° C. overnight or room temperature for 2 h. Serial dilutions of the competitor, N-acetyl-L-lysine-pyrrole, were prepared in PBST buffer. The resulting solution was mixed (1:1 v/v) with diluted antiserum in 5% nonfat milk dissolved in PBST buffer. The mixture was incubated at 4° C. overnight. The following day, the same procedure as in the titer analysis was followed. The absorbance at dual wavelength (450-650 nm) was read.

Compound	cross-reactivity with antiserum II (antiserum II)	further results
pyrrole-(NHMe)2	–	inhibition of immune response of N-antibody with BSA-pyrrole adducts (purified N-antibody): inhibited
pyrrole-(SMe)2	–	inhibition of immune response of S-antibody with BSA-pyrrole adducts (purified S-antibody): inhibited
retrorsine	no cross-reactivity	–
C[C@H]1C(=O)O[C@@H]2CCN3CC=C(COC(=O)[C@](C)(O)[C@]1(C)O)[C@H]23 [monocrotaline]	no cross-reactivity	–
